Source: BigSolDB 2.1

C#C[C@]1(O)CC[C@H]2[C@@H]3CCC4=CC(=O)CC[C@@H]4[C@H]3C(=C)C[C@@]21CC
solubility (mole fraction)
Settings | in DMF | in THF | in acetone | in ethanol | in ethyl acetate | in isopropanol | in methyl acetate | in n-butanol | in n-propanol | in water
273.15 K | 0.0757 | 0.0739 | 0.012 | 0.0017 | 0.0189 | 0.00463 | 0.0104 | 0.00421 | 0.00452 | 1.38e-05
278.15 K | 0.0792 | 0.0891 | 0.0133 | 0.00209 | 0.022 | 0.00545 | 0.0119 | 0.00514 | 0.00514 | 1.64e-05
283.15 K | 0.0825 | 0.106 | 0.0148 | 0.00249 | 0.0249 | 0.00633 | 0.0135 | 0.00615 | 0.00585 | 1.92e-05
288.15 K | 0.0865 | 0.125 | 0.0165 | 0.00293 | 0.0291 | 0.00731 | 0.0153 | 0.00742 | 0.00657 | 2.24e-05
293.15 K | 0.0888 | 0.148 | 0.0184 | 0.00343 | 0.0338 | 0.00851 | 0.017 | 0.00904 | 0.00753 | 2.6e-05
298.15 K | 0.0965 | 0.173 | 0.0198 | 0.00412 | 0.0383 | 0.00994 | 0.019 | 0.0109 | 0.00865 | 3.1e-05
303.15 K | 0.0974 | 0.2 | 0.0224 | 0.00494 | 0.043 | 0.0115 | 0.0211 | 0.0126 | 0.00974 | 3.65e-05
308.15 K | 0.101 | 0.223 | 0.0248 | 0.00593 | 0.0476 | 0.0132 | 0.0229 | 0.0148 | 0.0112 | 4.25e-05
313.15 K | 0.105 | 0.263 | 0.0273 | 0.00695 | 0.0539 | 0.0154 | 0.025 | 0.0171 | 0.0124 | 4.91e-05
318.15 K | 0.109 | 0.299 | 0.03 | 0.00817 | 0.059 | 0.0178 | 0.0271 | 0.0198 | 0.0142 | 5.62e-05
323.15 K | 0.115 | 0.332 | 0.0335 | 0.00967 | 0.0648 | 0.0209 | 0.0294 | 0.0227 | 0.0159 | 6.37e-05
